Measurements taken from ChEMBL document CHEMBL4308841, “Synthesis, in vitro antiproliferative activity, and kinase inhibitory effects of pyrazole-containing diarylureas and diarylamides” (Eur J Med Chem, 2018).

Experiments:
MDA-MB-231 [1] = assay: Growth inhibition of human MDA-MB-231 cells incubated for 48 hrs by sulforhodamine B assay; assay type: functional, cell-based; details: MDA-MB-231, 48 h
SF-295 = assay: Growth inhibition of human SF295 cells incubated for 48 hrs by sulforhodamine B assay; assay type: functional, cell-based; details: SF-295, 48 h
OVCAR-8 = assay: Growth inhibition of human OVCAR8 cells assessed as cell growth at 0.01 uM incubated for 48 hrs by sulforhodamine B assay relative to control; assay type: functional; details: OVCAR-8, 48 h, read-out: Activity
A549 = assay: Growth inhibition of human A549/ATCC cells incubated for 48 hrs by sulforhodamine B assay; assay type: functional, cell-based; details: A549, 48 h
DU-145 [2] = assay: Growth inhibition of human DU145 cells assessed as cell growth at 1 uM incubated for 48 hrs by sulforhodamine B assay relative to control; assay type: functional; details: DU-145, 48 h, read-out: Activity
IGROV-1 = assay: Growth inhibition of human IGROV1 cells assessed as cell growth at 0.1 uM incubated for 48 hrs by sulforhodamine B assay relative to control; assay type: functional; details: IGROV-1, 48 h, read-out: Activity
DU-145 [3] = assay: Growth inhibition of human DU145 cells assessed as cell growth at 100 uM incubated for 48 hrs by sulforhodamine B assay relative to control; assay type: functional; details: DU-145, 48 h, read-out: Activity
HCT-116 [4] = assay: Growth inhibition of human HCT116 cells incubated for 48 hrs by sulforhodamine B assay; assay type: functional, cell-based; details: HCT-116, 48 h
RXF 393 = assay: Growth inhibition of human RXF393 cells assessed as cell growth at 1 uM incubated for 48 hrs by sulforhodamine B assay relative to control; assay type: functional; details: RXF 393, 48 h, read-out: Activity
SK-MEL-28 = assay: Growth inhibition of human SK-MEL-28 cells incubated for 48 hrs by sulforhodamine B assay; assay type: functional, cell-based; details: SK-MEL-28, 48 h
T47D [5] = assay: Growth inhibition of human T47D cells incubated for 48 hrs by sulforhodamine B assay; assay type: functional, cell-based
NCI/ADR-RES = assay: Growth inhibition of human NCI/ADR-RES cells assessed as cell growth at 0.1 uM incubated for 48 hrs by sulforhodamine B assay relative to control; assay type: functional; details: read-out: Activity
MDA-MB-435 = assay: Growth inhibition of human MDA-MB-435 cells assessed as cell growth at 1 uM incubated for 48 hrs by sulforhodamine B assay relative to control; assay type: functional; details: MDA-MB-435, 48 h, read-out: Activity
KM12 = assay: Growth inhibition of human KM12 cells assessed as cell growth at 100 uM incubated for 48 hrs by sulforhodamine B assay relative to control; assay type: functional; details: KM12, 48 h, read-out: Activity
K562 = assay: Growth inhibition of human K562 cells assessed as cell growth at 0.01 uM incubated for 48 hrs by sulforhodamine B assay relative to control; assay type: functional; details: K562, 48 h, read-out: Activity
T47D [6] = assay: Growth inhibition of human T47D cells assessed as cell growth at 1 uM incubated for 48 hrs by sulforhodamine B assay relative to control; assay type: functional; details: read-out: Activity
CAKI-1 = assay: Growth inhibition of human Caki1 cells assessed as cell growth at 0.01 uM incubated for 48 hrs by sulforhodamine B assay relative to control; assay type: functional; details: CAKI-1, 48 h, read-out: Activity
NCI-H460 = assay: Growth inhibition of human NCI-H460 cells assessed as cell growth at 0.1 uM incubated for 48 hrs by sulforhodamine B assay relative to control; assay type: functional; details: NCI-H460, 48 h, read-out: Activity
Malme-3M = assay: Growth inhibition of human MALME-3M cells assessed as cell growth at 0.01 uM incubated for 48 hrs by sulforhodamine B assay relative to control; assay type: functional; details: read-out: Activity
T47D [7] = assay: Growth inhibition of human T47D cells assessed as cell growth at 0.1 uM incubated for 48 hrs by sulforhodamine B assay relative to control; assay type: functional; details: read-out: Activity
HCT-116 [8] = assay: Growth inhibition of human HCT116 cells assessed as cell growth at 0.1 uM incubated for 48 hrs by sulforhodamine B assay relative to control; assay type: functional; details: HCT-116, 48 h, read-out: Activity
SNB-75 = assay: Growth inhibition of human SNB75 cells assessed as cell growth at 1 uM incubated for 48 hrs by sulforhodamine B assay relative to control; assay type: functional; details: SNB-75, 48 h, read-out: Activity
MDA-MB-231 [9] = assay: Growth inhibition of human MDA-MB-231 cells assessed as cell growth at 100 uM incubated for 48 hrs by sulforhodamine B assay relative to control; assay type: functional; details: MDA-MB-231, 48 h, read-out: Activity
SK-MEL-2 = assay: Growth inhibition of human SK-MEL-2 cells assessed as cell growth at 100 uM incubated for 48 hrs by sulforhodamine B assay relative to control; assay type: functional; details: SK-MEL-2, 48 h, read-out: Activity
ACHN = assay: Growth inhibition of human ACHN cells assessed as cell growth at 0.1 uM incubated for 48 hrs by sulforhodamine B assay relative to control; assay type: functional; details: read-out: Activity
A498 = assay: Growth inhibition of human A498 cells assessed as cell growth at 0.01 uM incubated for 48 hrs by sulforhodamine B assay relative to control; assay type: functional; details: A498, 48 h, read-out: Activity
UACC-62 [10] = assay: Growth inhibition of human UACC62 cells assessed as cell growth at 1 uM incubated for 48 hrs by sulforhodamine B assay relative to control; assay type: functional; details: UACC-62, 48 h, read-out: Activity
UACC-62 [11] = assay: Growth inhibition of human UACC62 cells assessed as cell growth at 100 uM incubated for 48 hrs by sulforhodamine B assay relative to control; assay type: functional; details: UACC-62, 48 h, read-out: Activity
MCF7 = assay: Growth inhibition of human MCF7 cells assessed as cell growth at 0.1 uM incubated for 48 hrs by sulforhodamine B assay relative to control; assay type: functional; details: MCF7, 48 h, read-out: Activity
[12] = read-out: LC50 (the source's name)
[13] = read-out: pLC50 (the source's name) (converted)

SMILES: O=C(Nc1cccc(-n2cc(-c3ccncc3)c(-c3cc(O)cc(Cl)c3)n2)c1)Nc1ccc(Cl)c(Cl)c1
- GI50 (MDA-MB-231 [1]; read-out: GI50): 1.01 µM
- CC50 (MDA-MB-231 [1]; [12]): > 100 µM
- TGI (MDA-MB-231 [1]; read-out: TGI): 77 µM
- GI50 (MDA-MB-231 [1]; read-out: pGI50 (converted)): 1 µM
- CC50 (MDA-MB-231 [1]; [13]): > 100 µM
- TGI (MDA-MB-231 [1]; read-out: pTGI (converted)): 7.76 µM
- GI50 (SF-295; read-out: GI50): 1.7 µM
- CC50 (SF-295; [12]): 4.4 µM
- TGI (SF-295; read-out: TGI): 45 µM
- GI50 (SF-295; read-out: pGI50 (converted)): 1.7 µM
- CC50 (SF-295; [13]): 43.7 µM
- TGI (SF-295; read-out: pTGI (converted)): 4.57 µM
- growth at 0.01 µM (OVCAR-8): 102%
- IC50 (A549): 1.96 µM
- GI50 (A549; read-out: GI50): 1.96 µM
- CC50 (A549; [12]): > 100 µM
- TGI (A549; read-out: TGI): 75.4 µM
- GI50 (A549; read-out: pGI50 (converted)): 1.95 µM
- CC50 (A549; [13]): > 100 µM
- TGI (A549; read-out: pTGI (converted)): 7.59 µM
- growth at 1 µM (DU-145 [2]): 90%
- growth at 0.1 µM (IGROV-1): 101%
- growth at 100 µM (DU-145 [3]): -31%
- IC50 (HCT-116 [4]): 1.74 µM
- GI50 (HCT-116 [4]; read-out: GI50): 1.74 µM
- CC50 (HCT-116 [4]; [12]): 9.59 µM
- TGI (HCT-116 [4]; read-out: TGI): 41 µM
- GI50 (HCT-116 [4]; read-out: pGI50 (converted)): 1.74 µM
- CC50 (HCT-116 [4]; [13]): 9.77 µM
- TGI (HCT-116 [4]; read-out: pTGI (converted)): 4.07 µM
- growth at 1 µM (RXF 393): 38%
- GI50 (SK-MEL-28; read-out: GI50): 2.14 µM
- CC50 (SK-MEL-28; [12]): 4.2 µM
- TGI (SK-MEL-28; read-out: TGI): 55.5 µM
- GI50 (SK-MEL-28; read-out: pGI50 (converted)): 2.14 µM
- CC50 (SK-MEL-28; [13]): 41.7 µM
- TGI (SK-MEL-28; read-out: pTGI (converted)): 5.5 µM
- GI50 (T47D [5]; read-out: GI50): 2.32 µM
- CC50 (T47D [5]; [12]): > 100 µM
- TGI (T47D [5]; read-out: TGI): 61.7 µM
- GI50 (T47D [5]; read-out: pGI50 (converted)): 2.4 µM
- CC50 (T47D [5]; [13]): > 100 µM
- TGI (T47D [5]; read-out: pTGI (converted)): 6.17 µM
- growth at 0.1 µM (NCI/ADR-RES): 105%
- growth at 1 µM (MDA-MB-435): 79%
- growth at 100 µM (KM12): -63%
- growth at 0.01 µM (K562): 107%
- growth at 1 µM (T47D [6]): 96%
- growth at 0.01 µM (CAKI-1): 100%
- growth at 0.1 µM (NCI-H460): 97%
- growth at 0.01 µM (Malme-3M): 57%
- growth at 0.1 µM (T47D [7]): 88%
- growth at 0.1 µM (HCT-116 [8]): 102%
- growth at 1 µM (SNB-75): 63%
- growth at 100 µM (MDA-MB-231 [9]): -24%
- growth at 100 µM (SK-MEL-2): -52%
- growth at 0.1 µM (ACHN): 95%
- growth at 0.01 µM (A498): 57%
- growth at 1 µM (UACC-62 [10]): 83%
- growth at 100 µM (UACC-62 [11]): -74%
- growth at 0.1 µM (MCF7): 97%
